Source: patent US8710068B2, “Method of treating cancer using a survivin inhibitor” (The Trustees Of The University Of Pennsylvania, priority 2009, dated 2014)

Legend:
AsPC1 tumor xenograft = assay: Immunohistochemistry of tumor xenograft (Ki67, TUNEL); format: in vivo, athymic mice
Description: FIG. 14 illustrates the immunohistochemistry analysis of tumor xenograft following treatment with S12 or PBS.
We performed immunohistochemistry studies to analyze the cellular effects of S12 treatment on the tumors. […] In addition, we examined apoptosis using the TUNEL assay.

HCT116(p53−/−) cells = assay: MTT viability assay, HCT116(p53−/−); format: cell-based; conditions: 48 hours
Protocol: (§1) FIG. 4 illustrates the effects of S12 on proliferation of p53-positive and p53-negative cancer cells. (A) HCT116(p53+/+) or HCT116(p53−/−) cells were treated with DMSO or S12 at the indicated concentrations for 48 hours. The percentage of viable cells was evaluated by MTT assay.
(§2) Thus, inhibition of cell proliferation by S12 is independent of p53 status.

[1] = Toxicity observation in xenograft mice; format: in vivo; conditions: 5 to 50 mg/kg, xenograft studies
HeLa cells = assay: BrdU incorporation DNA synthesis assay (FACS), HeLa; format: cell-based, human; conditions: 4 hours treatment then one-hour BrdU
Protocol: BrdU-labeled cells were analyzed by FACS. The percentage of BrdU-positive cells is indicated.
HeLa cells were treated with S12, aphidicolin, or DMSO (control) for 4 hours. BrdU was then added to the medium followed by an additional incubation of 1 hour. The amount of BrdU was examined by staining with anti-BrdU antibody and FACS analysis. The percentage of BrdU-positive cells is shown.
To establish the specificity of the biological activities of the Survivin targeting we examined whether the compounds affect DNA synthesis. HeLa cells were treated with Aphidicolin, S2 or DMSO for 4 hours, followed by one-hour incubation with BrdU. The cells were then collected, fixed and stained with FITC-labeled anti-BrdU antibody.

[2] = test system: AsPC1 pancreatic cancer cells; assay: MTT tumor cell proliferation assay, AsPC1; format: cell-based, human; conditions: AsPC1, 5, 10, 20, or 50 μg/ml for 48 hours
Protocol: FIG. 3 illustrates the effect of S2 and its analogs on tumor cell proliferation. Cells were treated with DMSO or Survivin targeting molecules at the indicated concentration for 48 hours. The percentage of viable cells was evaluated by MTT assay. (A) AsPC1; (B) HeLa; (C) SKBR3; (D) DAOY.
FIG. 18 illustrates the effect of SBDO3, SN2, or SDC1 on tumor cell proliferation. (A) AsPC1 cells were treated with DMSO or the Survivin targeting molecules SBDO3 or SN2 at the indicated concentration for 48 hours. (B) SKBR3 cells were treated with DMSO or SDC1 for 48 hours. The percentage of viable cells was evaluated by MTT assay.
S2 and its analogs (S10, S11, S12, and S13) were tested for the ability to inhibit tumor cell proliferation by MTT assay. The AsPC1 pancreatic cancer cells were treated with DMSO, a control molecule SC2, or the Survivin-targeting compounds at the concentration of 5, 10, 20, or 50 μg/ml for 48 hours. The number of viable cells was evaluated by MTT.
SBDO3, SN2 and SDC1 were tested for the ability to inhibit tumor cell proliferation by MTT assay. The AsPC1 pancreatic cancer cells were treated with DMSO or the Survivin-targeting compounds at the concentration of 5, 10, 20, or 50 μg/ml for 48 hours. The number of viable cells was evaluated by MTT.

HCT116(p53+/+) cells = assay: MTT viability assay, HCT116(p53+/+); format: cell-based; conditions: 48 hours
Protocol: as §1, §2

O=C(CC1(O)C(=O)Nc2ccc(Br)cc21)c1ccc2c(c1)OCO2 (stereo not shown) [S12]
proliferation of tumor cells (Ki67) (AsPC1 tumor xenograft; immunohistochemistry of tumor xenograft): drastically reduced proliferation of tumor cells | apoptosis in the tumors (TUNEL assay) (AsPC1 tumor xenograft; tumor xenograft): increased the levels of apoptosis | reduction of cell viability (HCT116(p53−/−) cells): equally effective at reducing cell viability | toxic effects to the mice [1]: no overtly toxic effects | DNA synthesis (BrdU incorporation) (HeLa cells): did not block DNA synthesis | inhibition of cell proliferation / cell viability [2]: can inhibit cell proliferation and reduce cell viability in a dose-dependent manner | reduction of cell viability (HCT116(p53+/+) cells): equally effective at reducing cell viability
